Experimental data reported in EP2112155B1, “Hydrogensulfate salt of 2-acetoxy-5-(a-cyclopropylcarbonyl-2-fluorobenzyl)-4,5,6,7-tetrahydrothieno[3,2-c]pyridine and its preparation” (Sandoz AG, priority 2008, dated 2009).
Structures can show the parent of a compound that is named as a salt.

Test: Solubility of various Prasugrel acid addition salts, determined according to European Pharmacopoeia 6.0, 5.11 (2008)
Format: physicochemical
Excerpt: As bioavailability depends, among others, on solubility, an optimal active substance for oral application should show a high solubility in a broad pH-range. […] Table 2: Solubility of various Prasugrel acid addition salts

Solubility (Acetate buffer pH 4.5): insoluble
Solubility (Hydrochloric acid medium pH 1.2): sparingly soluble
Solubility (water): insoluble
Structure (SMILES): CC(=O)Oc1cc2c(s1)CCN(C(C(=O)C1CC1)c1ccccc1F)C2 (stereo not drawn) [Prasugrel hydrochloride]
